Results from patent US20080176264A1, “Osteoclast Culture Vessels and Methods of Use” (priority 2004, published 2008).

System: primary human osteoclast precursors
Test: In vitro bone resorption assay in OSTEOASSAY plate (CTx collagen resorption product in supernatant, EIA)
Type: cell-based
Conditions: supernatants assayed after an additional 2 days, M-CSF and soluble RANK ligand
Description: OSTEOASSAY™ plates, which contain adherent particles (≦0.125 mm dimension) of native human bone, were seeded with 10,000 primary human osteoclast precursors (“Poietics™ Osteoclast Precursors,” product no. 2T-110, Cambrex Corporation) per well in medium containing M-CSF+/−soluble RANK ligand and cultured at 37° C. for 5-7 days. Culture media were changed on day 5, 6 or 7 and the cultures were continued for another 1 to 3 days.
The release into the culture supernatants of collagen type I peptides from the bone particles was measured quantitatively by enzyme immunoassay (EIA). Three different commercially available assay kits for the measurement of resorption-specific collagen resorption fragments were evaluated: the METRA™ Helical Peptide EIA kit (Quidel), the Serum CROSSLAPS® ELISA (Nordic Bioscience) kit, and the OSTEOMARK® NTx (Ostex) kit. In some experiments, the OSTEOASSAY™ plate was compared to dentin discs (ALPCO Diagnostics). In other assays, primary human osteoclast precursors were exposed to inhibitors of osteoclast function (alendronate or calcitonin) for 48-72 hours and then assayed for bone resorptive activity.
Primary human osteoclast precursors were seeded at 10,000 cells/well and cultured in medium containing M-CSF and soluble RANK ligand. After 5 days of culture, the medium was renewed +/−1 nM calcitonin or +/−various concentrations of alendronate. […]

IC50 (Homo sapiens, Osteoclast, various concentrations added after 5 days of culture, FIG. 4, read-out: IC50 for inhibition of bone resorption (CTx collagen resorption product))	Compound	inhibition of in vitro bone resorption (CTx collagen resorption product) (1 nM calcitonin added after 5 days of culture, FIG. 3)
~1000 nM	NCCCC(O)(P(=O)(O)O)P(=O)(O)O [alendronate]	
	calcitonin	effectively inhibits in vitro bone resorption
